Assay results published in patent US9901638B2, “Composition and method for treating an autoimmune disease” (RedHill Biopharma Ltd., priority 2011, dated 2018).

Tested on: EAE relapse (remitting-relapsing MS model)
Experiment: EAE relapse study (PLP139-151/CFA), therapeutic treatment
Type: in vivo
Conditions: groups of 15; treatment from enrolment to Day 39; vehicle group 8 mice; FTY-720 3 mg/kg p.o. QD, RHB-104 p.o. BID
From the text: Disease was induced by immunizing mice on Day 0 with PLP139-151 peptide emulsified in complete Freund's adjuvant (CFA).
To assess disease development, mice were weighed three times per week (Monday, Wednesday and Friday) from the time of immunization and scored daily for clinical signs of EAE starting on Day 9.
Enrollment of mice into groups occurred on the second day of clinical signs of EAE for each mouse. Mice were enrolled into treatment groups as they develop signs of EAE (rolling enrolment).
45 mice were enrolled into 3 groups of 15 and the treatment started on the day of enrolment. Assignment was balanced to achieve similar scores between the groups at enrolment.
Group 1—Vehicle (PBS), p.o., BID, 5 mL/kg (negative control)
Group 2—treated with FTY-720 (Fingolimod, Gilenya) 3 mg/kg, p.o., QD (a drug used for treatment of MS and used as a positive control)
Group 3—treated with RHB-104, p.o., BID, 5 mL/kg
Treatment started on the day of enrolment and continued until Day 39.
All dosing was performed at the same time (+/−1 hour) each day. […]
Mice were scored daily from Day 9 to Day 40, and body weight was measured three times/week (Monday, Wednesday and Friday), starting before immunization (Day −1). […]
Readouts were EAE scores on the scale 0-5 in 0.5 unit increments, and changes in body weight.
EAE was scored on scale 0 to 5 as described above.

SMILES: CCCCCCCCc1ccc(CCC(N)(CO)CO)cc1 [FTY-720, Fingolimod]
- Number of mice showing relapse: 2 mice
